Here are results for 20 compounds from US9346809B2 (LEO PHARMA A/S, priority 2009, dated 2016).

Type in all cases: biochemical
In assay [1] the target is T1, JAK1 (aa 850-1154, catalytic domain, GST-tag) (Homo sapiens, UniProt P23458).
T1 construct: JAK1 (aa 850-1154) and TYK2 (aa 871-1187) are expressed with an N-terminally fused GST-tag; GST (N); purchased Carna Biosciences, Inc; host or cells: baculovirus expression system
In words: JAK kinase assay (HTRF, phosphorylation of TK substrate-biotin), JAK1. Conditions: ATP at Km (7 μM), read-out: JAK1 kinase inhibitory activity (EC50 indicator). The procedure, abridged:
(§1)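 Compound was mixed with TK substrate-biotin (1 μM final), then kinase plus ATP at its Km was added and left 20-30 min at room temperature. Detection mix with EDTA, Streptavidin-XL665 and STK Ab Cryptate stopped the reaction; after overnight dark incubation, HTRF was read and EC50 derived.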
On the technique in general: Time-resolved FRET reads energy transfer from a long-lived donor to a nearby acceptor.

The target in assay [2] is T2, JAK2 (catalytic domain, His-tag) (Homo sapiens, UniProt O60674).
T2 construct: All four purified enzymes contain only the catalytic domain; His (N); purchased Carna Biosciences, Inc; host or cells: baculovirus expression system
T2 sequence (O60674 849-1124 limits assumed): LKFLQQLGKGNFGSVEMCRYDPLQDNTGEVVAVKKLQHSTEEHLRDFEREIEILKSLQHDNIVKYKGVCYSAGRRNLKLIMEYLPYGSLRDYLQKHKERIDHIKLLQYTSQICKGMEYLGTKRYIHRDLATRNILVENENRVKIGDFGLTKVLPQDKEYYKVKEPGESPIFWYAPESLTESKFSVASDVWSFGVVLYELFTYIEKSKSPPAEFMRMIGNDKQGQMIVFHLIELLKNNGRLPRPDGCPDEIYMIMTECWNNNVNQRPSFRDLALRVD
In words: JAK kinase assay (HTRF, phosphorylation of TK substrate-biotin), JAK2. Conditions: ATP at Km (4 μM), read-out: JAK2 kinase inhibitory activity (EC50 indicator). In outline: as §1

For assay [3], the target named is T3, JAK3 (catalytic domain, His-tag) (Homo sapiens, UniProt P52333).
T3 construct: All four purified enzymes contain only the catalytic domain; His (N); purchased Carna Biosciences, Inc; host or cells: baculovirus expression system
T3 sequence (P52333 822-1111 limits assumed): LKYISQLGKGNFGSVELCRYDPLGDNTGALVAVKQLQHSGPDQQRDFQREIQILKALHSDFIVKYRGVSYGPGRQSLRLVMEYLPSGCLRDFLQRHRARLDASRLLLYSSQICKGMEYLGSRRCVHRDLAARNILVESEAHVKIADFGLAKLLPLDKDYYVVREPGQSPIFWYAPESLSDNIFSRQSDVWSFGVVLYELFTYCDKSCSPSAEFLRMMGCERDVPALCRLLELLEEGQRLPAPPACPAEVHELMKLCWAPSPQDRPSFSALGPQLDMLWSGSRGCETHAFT
Nature of the assay: JAK kinase assay (HTRF, phosphorylation of TK substrate-biotin), JAK3. Conditions: ATP at Km (2 μM), read-out: JAK3 kinase inhibitory activity (EC50 indicator). In outline:
as §1

For assay [4], the target named is T4, TYK2 (aa 871-1187, catalytic domain, GST-tag) (Homo sapiens, UniProt P29597).
T4 construct: JAK1 (aa 850-1154) and TYK2 (aa 871-1187) are expressed with an N-terminally fused GST-tag; GST (N); purchased Carna Biosciences, Inc; host or cells: baculovirus expression system
T4 sequence (P29597 871-1187): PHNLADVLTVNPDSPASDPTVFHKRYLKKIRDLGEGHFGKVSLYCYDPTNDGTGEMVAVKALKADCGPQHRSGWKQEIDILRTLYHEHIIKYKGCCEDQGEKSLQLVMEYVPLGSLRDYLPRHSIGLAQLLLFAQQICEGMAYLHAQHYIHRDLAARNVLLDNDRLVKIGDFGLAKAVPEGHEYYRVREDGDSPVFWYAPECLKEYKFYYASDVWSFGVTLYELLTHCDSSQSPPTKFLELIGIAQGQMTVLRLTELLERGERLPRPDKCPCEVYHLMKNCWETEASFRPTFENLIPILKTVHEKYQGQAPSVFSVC
Nature of the assay: JAK kinase assay (HTRF, phosphorylation of TK substrate-biotin), TYK2. Conditions: ATP at Km (13 μM), read-out: TYK2 kinase inhibitory activity (EC50 indicator). In outline: as §1

Like-named read-outs stand apart in the source and are kept apart here. Bounds are passed on as bounds.

T1 sequence (P23458 850-1154): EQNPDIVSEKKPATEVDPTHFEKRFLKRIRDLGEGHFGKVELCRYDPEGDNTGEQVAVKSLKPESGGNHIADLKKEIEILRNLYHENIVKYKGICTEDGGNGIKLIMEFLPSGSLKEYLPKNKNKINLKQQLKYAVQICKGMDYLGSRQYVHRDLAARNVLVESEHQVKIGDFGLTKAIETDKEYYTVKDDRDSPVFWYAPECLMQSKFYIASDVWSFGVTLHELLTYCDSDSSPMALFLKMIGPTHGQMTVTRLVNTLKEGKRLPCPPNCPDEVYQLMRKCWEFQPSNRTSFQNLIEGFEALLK

With `O=C(C1CCOC1)N1CCN(c2ncnc3[nH]ccc23)CC12CC2` (centres unmarked) [Example 7, [7-(7H-Pyrrolo[2,3-d]pyrimidin-4-yl)-4,7-diazaspiro[2.5]oct-4-yl]-(tetrahydrofuran-3-yl)methanone], the EC50 is 100 to 500 nM in assay [1], under 100 nM in assay [2], 100 to 500 nM in assay [3] and over 500 nM in assay [4].

For the compound `NS(=O)(=O)c1cc(OCC(=O)N2C3CCC2CN(c2ncnc4[nH]ccc24)C3)ccc1Cl` [Example 127, 2-Chloro-5-{2-oxo-2-[3-(7H-pyrrolo[2,3-d]pyrimidin-4-yl)-3,8-diaza-bicyclo[3.2.1]oct-8-yl]-ethoxy}-benzenesulfonamide], the EC50 in assay [1] was under 100 nM; in assay [2], under 100 nM; in assay [3] it was under 100 nM; in assay [4], over 500 nM.

Take `O=C(c1nsc2cc(Br)ccc12)N1[C@@H]2CC[C@@H]1CN(c1ncnc3[nH]ccc13)C2` [Example 360, (6-Bromo-benzo[d]isothiazol-3-yl)-[3-(7H-pyrrolo[2,3-d]pyrimidin-4-yl)-3,8-diaza-bicyclo[3.2.1]oct-8-yl]-methanone]: the EC50 in assay [1] (HTRF assay) was 100 to 500 nM; in assay [2] (HTRF assay) it was 100 to 500 nM; in assay [3] (HTRF assay) it was 100 to 500 nM; in assay [4] (HTRF assay) it was over 500 nM.

In the case of `N#CC1(C(=O)N2C[C@@H]3C[C@H]2CN3c2ncnc3[nH]ccc23)CC1` [Example 270, 1-[5-(7H-Pyrrolo[2,3-d]pyrimidin-4-yl)-2,5-diaza-bicyclo[2.2.1]heptane-2-carbonyl]-cyclopropanecarbonitrile], the EC50 in assay [1] (HTRF assay), in assay [2] (HTRF assay), in assay [3] (HTRF assay) and in assay [4] (HTRF assay) was over 500 nM each time.

With `NC(=O)c1ccc(C(=O)N2CCN(c3ncnc4[nH]ccc34)CC23CC3)cc1` [Example 49, 4-[7-(7H-Pyrrolo[2,3-d]pyrimidin-4-yl)-4,7-diazaspiro[2.5]octane-4-carbonyl]benzamide], the EC50 in assay [1] was under 100 nM; in assay [2] it was under 100 nM; in assay [3], 100 to 500 nM; in assay [4] it was over 500 nM.

Turning to `O=C([C@@H]1CCCc2ccccc21)N1C2CCC1CN(c1ncnc3[nH]ccc13)C2` [Example 137, [3-(7H-Pyrrolo[2,3-d]pyrimidin-4-yl)-3,8-diaza-bicyclo[3.2.1]oct-8-yl]-(1,2,3,4-tetrahydro-naphthalen-1-yl)-methanone], the EC50 was over 500 nM in assay [1], 100 to 500 nM in assay [2], over 500 nM in assay [3] and over 500 nM in assay [4].

Take `N#Cc1ccc(C(=O)N2CCN(c3ccnc4[nH]ccc34)CC23CC3)cc1` [Example 226, 4-[7-(1H-Pyrrolo[2,3-b]pyridin-4-yl)-4,7-diaza-spiro[2.5]octane-4-carbonyl]-benzonitrile]: the EC50 is under 100 nM in assay [1] (HTRF assay), 100 to 500 nM in assay [2] (HTRF assay), over 500 nM in assay [3] (HTRF assay) and over 500 nM in assay [4] (HTRF assay).

In the case of `O=C(c1ccc(C(F)(F)F)cc1)N1[C@@H]2CC[C@H]1CN(c1ncnc3[nH]ccc13)C2` [Example 1, [3-(7H-Pyrrolo[2,3-d]pyrimidin-4-yl)-3,8-diazabicyclo[3.2.1]oct-8-yl]-(4-trifluoromethylphenyl)methanone], the EC50 was under 100 nM in assay [1], 100 to 500 nM in assay [2], over 500 nM in assay [3] and over 500 nM in assay [4].

Turning to `N#CCC(=O)N1[C@@H]2CC[C@H]1CN(c1ncnc3[nH]ccc13)C2` [Example 53, 3-Oxo-3-[3-(7H-pyrrolo[2,3-d]pyrimidin-4-yl)-3,8-diazabicyclo[3.2.1]oct-8-yl]propionitrile], the EC50 was 100 to 500 nM in assay [1], 100 to 500 nM in assay [2], 100 to 500 nM in assay [3] and over 500 nM in assay [4].

`O=C(c1cc2ccccc2[nH]1)N1CCN(c2ncnc3[nH]ccc23)CC12CC2` [Example 55, (1H-Indol-2-yl)-[7-(7H-pyrrolo[2,3-d]pyrimidin-4-yl)-4,7-diazaspiro[2.5]oct-4-yl]methanone]: the concentration giving a half-maximal response (EC50) in assay [1] is under 100 nM; in assay [2], under 100 nM; in assay [3] it was under 100 nM; in assay [4] it was 100 to 500 nM.

Regarding `N#CCCC(=O)N1CCN(c2ccnc3[nH]ccc23)CC12CC2` [Example 116, 4-Oxo-4-[7-(1H-pyrrolo[2,3-b]pyridin-4-yl)-4,7-diaza-spiro[2.5]oct-4-yl]-butyronitrile], the EC50 in assay [1] is 100 to 500 nM; in assay [2] it was 100 to 500 nM; in assay [3], 100 to 500 nM; in assay [4], over 500 nM.

For the compound `N#Cc1cccc(CC(=O)N2CCN(c3ccnc4[nH]ccc34)CC23CC3)c1` [Example 236, 3-{2-Oxo-2-[7-(1H-pyrrolo[2,3-b]pyridin-4-yl)-4,7-diaza-spiro[2.5]oct-4-yl]-ethyl}-benzonitrile], the EC50 in assay [1] (HTRF assay), in assay [2] (HTRF assay), in assay [3] (HTRF assay) and in assay [4] (HTRF assay) was over 500 nM each time.

For `CC(=O)c1cc(C(=O)N2[C@@H]3CC[C@H]2CN(c2ncnc4[nH]ccc24)C3)cs1` [Example 112, 1-{4-[3-(7H-Pyrrolo[2,3-d]pyrimidin-4-yl)-3,8-diaza-bicyclo[3.2.1]octane-8-carbonyl]-thiophen-2-yl}-ethanone], the EC50 is under 100 nM in assay [1], under 100 nM in assay [2], 100 to 500 nM in assay [3] and over 500 nM in assay [4].

Take `NS(=O)(=O)Cc1ccc(C(=O)N2CCN(c3ncnc4[nH]ccc34)CC23CC3)cc1` [Example 409, {4-[7-(7H-Pyrrolo[2,3-d]pyrimidin-4-yl)-4,7-diaza-spiro[2.5]octane-4-carbonyl]-phenyl}-methanesulfonamide]: the EC50 in assay [1] (HTRF assay) is under 100 nM; in assay [2] (HTRF assay), under 100 nM; in assay [3] (HTRF assay), under 100 nM; in assay [4] (HTRF assay), 100 to 500 nM.

Regarding `N#Cc1ccccc1CC(=O)N1CCN(c2ncnc3[nH]ccc23)CC12CC2` [Example 113, 2-{2-Oxo-2-[7-(7H-pyrrolo[2,3-d]pyrimidin-4-yl)-4,7-diaza-spiro[2.5]oct-4-yl]-ethyl}-benzonitrile], the EC50 in assay [1] is 100 to 500 nM; in assay [2] it was under 100 nM; in assay [3], 100 to 500 nM; in assay [4], over 500 nM.

For the compound `O=C(CCC(F)(F)F)N1CCN(c2ncnc3[nH]ccc23)CC12CC2` [Example 28, 4,4,4-Trifluoro-1-[7-(7H-pyrrolo[2,3-d]pyrimidin-4-yl)-4,7-diazaspiro[2.5]oct-4-yl]butan-1-one], the EC50 in assay [1] was under 100 nM; in assay [2], under 100 nM; in assay [3] it was under 100 nM; in assay [4], 100 to 500 nM.

Turning to `O=C(c1cc2c(s1)CCC2)N1C2CCC1CN(c1ncnc3[nH]ccc13)C2` [Example 139, (5,6-Dihydro-4H-cyclopenta[b]thiophen-2-yl)-[3-(7H-pyrrolo[2,3-d]pyrimidin-4-yl)-3,8-diaza-bicyclo[3.2.1]oct-8-yl]-methanone], the EC50 was under 100 nM in assay [1], under 100 nM in assay [2], 100 to 500 nM in assay [3] and over 500 nM in assay [4].

Consider `O=C(c1cccc(OC(F)(F)F)c1)N1CCN(c2ncnc3[nH]ccc23)CC12CC2` [Example 160, [7-(7H-Pyrrolo[2,3-d]pyrimidin-4-yl)-4,7-diaza-spiro[2.5]oct-4-yl]-(3-trifluoromethoxy-phenyl)-methanone], for which the EC50 was under 100 nM in assay [1], under 100 nM in assay [2], 100 to 500 nM in assay [3] and 100 to 500 nM in assay [4].

As for `N#Cc1cccc(CS(=O)(=O)N2[C@@H]3CC[C@H]2CN(c2ncnc4[nH]ccc24)C3)c1` [Example 77, 3-[3-(7H-Pyrrolo[2,3-d]pyrimidin-4-yl)-3,8-diaza-bicyclo[3.2.1]octane-8-sulfonylmethyl]-benzonitrile], the EC50 in assay [1] was under 100 nM; in assay [2] it was under 100 nM; in assay [3], 100 to 500 nM; in assay [4] it was over 500 nM.

In the case of `O=C(c1ccc(=O)[nH]c1)N1CCN(c2ncnc3[nH]ccc23)CC12CC2` [Example 56, 5-[7-(7H-Pyrrolo[2,3-d]pyrimidin-4-yl)-4,7-diazaspiro[2.5]octane-4-carbonyl]-1H-pyridin-2-one], the EC50 in assay [1] is under 100 nM; in assay [2], under 100 nM; in assay [3], 100 to 500 nM; in assay [4], over 500 nM.

By EC50 is commonly meant the concentration that produces a half-maximal response.
